Results published in PubChem BioAssay (NCI).
“And” between values parts separate entries of the source, which are not always exact repeats. Identical values can stand only once.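 Growth conditions: 96-well plates. Treatment: test compound, 48 hours, 5 concentrations. Analysis: linear interpolation between bracketing concentrations; unreached endpoints set to highest concentration. GI50 marks 50% less growth. TGI denotes the concentration required for complete inhibition of growth.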

Assays:
Test in all cases: NCI anticancer screen, dose series, 48 h
[1] = tested on: A498 renal
[2] = tested on: HCT-15 colon
[3] = tested on: K-562 leukemia
[4] = tested on: NCI/ADR-RES ovarian
[5] = tested on: SK-MEL-2 melanoma
[6] = tested on: COLO 205 colon
[7] = tested on: BT-549 breast
[8] = tested on: KM12 colon
[9] = tested on: OVCAR-5 ovarian
[10] = tested on: SNB-19 CNS

Structure (SMILES) | TGI [1] | TGI [2] [µM] | TGI [3] [µM] | TGI [4] [µM] | TGI [5] [µM] | TGI [6] [µM] | TGI [7] | TGI [8] [µM] | TGI [9] [µM] | TGI [10] [µM] | GI50 [1] | GI50 [2] | GI50 [3] [µM] | GI50 [4] | GI50 [5] [µM] | GI50 [6] [µM] | GI50 [7] | GI50 [8] | GI50 [9] | GI50 [10]
C=C1C(=O)O[C@@H]2CC(CO)=C([C@@H](C)CCCO)[C@@H](OC(=O)/C(C)=C\C)[C@H]12 | > 74.1 µM | 31.3 | 31.2 | 75.4 | 70.5 | 28.7 | > 90.6 µM | 43.7 | > 56.9 | > 54.6 | – | – | – | – | – | – | – | – | – | –
O=C(NNc1ccccc1)c1ccc(Cl)c(Cl)c1 | 59.7 µM | > 100 | > 100 | > 100 | 36.2 | 0.414 | > 66.8 µM | > 75.9 | > 100 | > 100 | – | – | – | – | – | – | – | – | – | –
[Cl][Hg][c]1ccc2ccccc2c1 | 12.4 µM | 3.18 | 9.77 | 8.84 | 3.92 | 5.18 | 2.82 µM | 22.6 | 16.5 | 5.21 | 3.96 µM | 1.58 µM | 0.862 | 2.41 µM | 1.6 | 2.3 | 1.46 µM | 7.66 µM | 7.55 µM | 2.22 µM
CC(C)c1[nH]nc2c(NCc3ccc(-c4ccccn4)cc3)nc(SCCN)nc12 | 0.0826 µM and 0.0876 µM | 10.9 | 10.2 | 21.3 | 0.105 | 0.0342 | 0.168 µM and 0.642 µM | 10.3 | 12.8 | 11.8 | 0.0306 µM and 0.0302 µM | 0.672 µM and 0.683 µM | 0.0198 | 4.87 µM and 3.56 µM | 0.0306 | – | 0.0322 µM and 0.067 µM | 0.0175 µM and 0.0126 µM | 0.0472 µM and 0.0385 µM | 0.0173 µM and 0.0142 µM
Cc1cc(N(CCC#N)CCC#N)ccc1/C=C(\NC(=O)/C=C/c1ccccc1)C(=O)Nc1ccc(Cl)cc1 | > 100 µM | > 100 | > 100 | > 100 | > 100 | 12.7 | > 100 µM | > 94 | > 100 | > 100 | – | – | – | – | – | – | – | – | – | –
Cc1nn(Cc2ccccc2)cc1C(=O)Nc1sc2c(c1C(N)=O)CCC(=O)C2 | 28.2 µM | 3.72 | 13.1 | 10.1 | 5.2 | 3.76 | 7.82 µM | 4.99 | 4.3 | > 100 | 3.97 µM | 1.63 µM | 1.7 | 3.36 µM | 2.12 | 1.67 | 2.56 µM | 1.94 µM | 1.92 µM | 3.33 µM
OC(CN1CCCC2CCCCC21)c1cc2ccccc2c2ccccc12 (stereo not given) | 5.8 µM | 9.23 | 3.39 | 5.19 | 3.31 | 2.9 | 4.06 µM | 4.04 | 5.64 | 15.1 | 2.21 µM | 2.15 µM | 1.68 | 2.07 µM | 1.67 | 1.45 | 1.54 µM | 1.87 µM | 1.95 µM | 3.52 µM
Cn1c2c(c3ccccc3c1=O)C(=O)c1ccccc1-2 | > 100 µM | > 100 | > 100 | > 100 | > 100 | > 100 | > 100 µM | > 100 | > 100 | > 100 | – | – | – | – | – | – | – | – | – | –
CC1=CC(C)(C)Nc2ccc(Cc3ccc4c(c3)C(C)=CC(C)(C)N4)cc21 | 61.4 µM | 72.6 | 51.8 | > 100 | 40.6 | 45.2 | > 100 µM | 72.6 | > 100 | > 100 | 10.9 µM | 13.8 µM | 3.6 | 18.1 µM | 12.5 | 20.3 | 28.4 µM | 8.34 µM | 52.3 µM | 17.2 µM
CC(=O)c1ccc2c3c1[C@H]1O[C@H]1c1cccc(c1-3)[C@@H]1O[C@H]21 | 7.36 µM | 4.12 | > 35.2 | 5.68 | > 100 | 3.59 | 4.53 µM | 5.31 | 3.68 | 13.1 | 2.74 µM | – | – | 2.3 µM | 3.79 | – | – | – | – | –
C=C1C(=O)O[C@H]2[C@H]1CC/C(COC(=O)CCCCCCCC(=O)OC/C1=C/CC[C@@]3(C)O[C@H]3[C@H]3OC(=O)C(=C)[C@@H]3CC1)=C\CC[C@@]1(C)O[C@@H]21 | 28.7 µM | 4.16 | 10.8 | > 100 | 31.5 | 3.78 | 3.45 µM | 4.26 | 7.01 | 19.2 | 12.3 µM | 1.75 µM | 0.927 | 3.35 µM | 11.3 | 1.76 | 1.59 µM | 1.95 µM | 2.48 µM | 4.85 µM
CC(=O)O[C@@H]1C2=C(C)C3(CC3)[C@@](C)(O)C(=O)C2=C[C@@]1(C)CO | 3.53 µM | 10.1 | > 100 | 4.11 | 4.43 | 3.73 | 2.79 µM | 8.59 | – | 9.6 | 1.8 µM | 0.423 µM | 0.482 | 0.416 µM | 1.86 | 1.22 | 0.509 µM | 1.32 µM | 0.427 µM | 1.08 µM
COc1cc2c(NC3CCN(C(C)C)CC3)nc(C3CCCCC3)nc2cc1OCCCN1CCCC1 | 14.1 µM | 23.9 | 4.55 | > 78.8 | 4.59 | 3.1 | 15.3 µM | 12.6 | 22.2 | 30.3 | 2.01 µM | 9.82 µM | 1.99 | 24.9 µM | 2.18 | 1.66 | 3.85 µM | 3.07 µM | 8.87 µM | 15.4 µM
CSc1nnc(-c2cc3c([nH]c4ccccc43)c(-c3cccc(O)c3)n2)n1-c1ccc(C)cc1 | 7.14 µM | > 100 | > 100 | > 100 | 6.61 | 43.6 | 9.27 µM | > 100 | 70.1 | 28.6 | 1.73 µM | 3.55 µM | 5.08 | 5.64 µM | 2.11 | 4.49 | 2.37 µM | 3.86 µM | 17.2 µM | 3.71 µM
COc1c(B(O)O)cccc1-c1nc2ccc3[nH]ncc3c2c2c1CCCC2 | 3.88 µM | 14.2 | > 100 | 15.2 | 8.78 | 6.32 | 2.56 µM | 10.9 | 25.2 | 28.1 | 0.491 µM | 2.88 µM | 3.4 | 2.25 µM | 3.4 | 2.2 | 0.122 µM | 2.25 µM | 2.45 µM | 2.68 µM
O=C1C(Cl)=C(Nc2cc(Cl)ccc2O)C(=O)N1Cc1ccccc1 | 35.7 µM | 32.6 | 65.3 | 37.4 | 53.3 | 44.3 | 44.3 µM | 48.2 | 35.4 | > 61.2 | 19.7 µM | 17 µM | 23.7 | 18.9 µM | 20.3 | 18.3 | 20.5 µM | 22 µM | 18.8 µM | 25.4 µM
Cc1nc2sc(C(=O)Nc3ccccc3)c(N)c2cc1C(O)c1ccccc1 (stereo not given) | 1.19 µM | > 100 | > 59.2 | 28.8 | > 100 | 4.99 | 24.1 µM | > 44 | > 88.1 | > 100 | 0.106 µM | 0.17 µM | 0.0933 | 0.314 µM | 0.659 | 0.376 | 0.409 µM | 0.344 µM | 0.565 µM | 0.446 µM
O=C(CSC(c1ccccc1)c1ccccc1)N/N=C/c1ccccc1Cl | 59.9 µM | > 51 | 46.8 | > 74.6 | > 100 | > 100 | 17 µM | 88.8 | > 73.2 | > 100 | 7.2 µM | 8.36 µM | 10.2 | 13.6 µM | > 62.5 | > 71.8 | 2.75 µM | 27.1 µM | 10.7 µM | 43.9 µM
Cc1cc(Cl)nc(N(CCCNc2ccnc3cc(Cl)ccc23)Cc2cccs2)n1 | 6.99 µM | 10.1 | 8.55 | 6.53 | 6.54 | 3.58 | 9.13 µM | 11 | 13.7 | 13.5 | 0.714 µM | 1.43 µM | 0.496 | 1.06 µM | 2.29 | 1.39 | 2.52 µM | 2.61 µM | 1.39 µM | 2.35 µM
CC(C)c1[nH]nc2c(NCc3ccc(-c4ccccn4)cc3)nc(SCCN(C)C)nc12 | 0.164 µM | 10.9 | 10.3 | 11.4 | 0.269 | 0.0297 | 0.217 µM | 6.07 | 11.2 | 12.6 | 0.0563 µM | 0.0872 µM | < 0.021 | 0.13 µM | 0.0798 | < 0.015 | 0.0194 µM | < 0.0159 µM | 0.0572 µM | 0.0244 µM
O=C(N=Nc1c(Cl)c(O)c2ccccc2c1O)C(=O)Nc1cccc(C(F)(F)F)c1 | 23.6 µM | 12 | 25.6 | 17.7 | 20.5 | 24.6 | 12.5 µM | 16.6 | 28.6 | 17.6 | 9.13 µM | 3.21 µM | 3.94 | 3.52 µM | 7.22 | 10.9 | 3.74 µM | 5.45 µM | 14.7 µM | 4.6 µM
Cc1ccc(-c2c3c(nn2-c2ccc(S(=O)(=O)NC(=O)NC4CCCCC4)cc2)-c2ccccc2C3)cc1 | 20 µM | 47.7 | 13.5 | 54.5 | 32 | 30.4 | 26.5 µM | 38.2 | 70.3 | 49.7 | – | 16.1 µM | 3.1 | 16 µM | 16.8 | 12.1 | 11.4 µM | 13 µM | 29.2 µM | 20.1 µM
CCC[n+]1cc2cc3c(cc2c2c1-c1cc4c(cc1C2)OCO4)OCO3 (tested in a mixture with another compound) | 25.7 µM | > 100 | > 35 | > 100 | 2.35 | 3.79 | 1.82 µM | 5.33 | 29 | 2.18 | 11.2 µM | 28.2 µM | 0.581 | > 85.5 µM | 0.53 | 0.49 | 0.312 µM | 0.374 µM | 8.85 µM | 0.269 µM
COC(=O)c1c2c(c(C)[n+]([O-])c1C)C(=O)C(NCc1ccc(F)cc1)=CC2=O | 3.29 µM | 3 | > 100 | 5.53 | 4.03 | 1.36 | 3.78 µM | 6.49 | 3.59 | 5.2 | 1.57 µM | 1.23 µM | 2.43 | 1.68 µM | 1.75 | 0.376 | 1.73 µM | 1.66 µM | 1.8 µM | 2.1 µM
CN(C)c1cc2c(Nc3ccc4c(cnn4Cc4ccccc4)c3)ncnc2cn1 | > 25 µM | > 25 | > 25 | > 25 | 20.9 | > 25 | > 25 µM | > 20 | > 25 | > 25 | 16.7 µM | 9.6 µM | 9.66 | 5.85 µM | 7.5 | 10.1 | 10.7 µM | 7.29 µM | 9.2 µM | 12.7 µM
O=c1cc(-c2ccccc2)oc2cc(OCCCCCN3CCOCC3)cc(O)c12 | 82.9 µM | > 100 | > 100 | > 100 | 91.7 | > 100 | > 100 µM | > 100 | 95.3 | 71.6 | 33.7 µM | 42 µM | 29 | 72 µM | 25.4 | > 100 | 77.5 µM | > 100 µM | 18.1 µM | 23.9 µM
